Results: paper PMC12596218 (Journal of Lipid Research, 2025)
Like-named read-outs stand apart in the source and are kept apart here.

Columns and labels:
OATP1B1 = settings: cited from earlier work; for IC50: read-out: IC50 OATP1B1 inhibition
ASBT = biological target: T1, ASBT (Homo sapiens, UniProt Q12908); assay: Transport inhibition and recovery assay (inhibitor washout) in ASBT-HEK293 cells; type: cell-based; settings: 3 μM inhibitor 5 min; for ASBT inhibition pattern after inhibitor washout and inhibitor-free incubation: recovery time up to 240 min
T1 construct: stably transfected with the full open reading frames of human NTCP, ASBT, SOAT, OATP1B1, OATP1B3, OATP2B1, and murine Asbt (mAsbt); expressed in transfected cells; host or cells: HEK293 (Flp-In), stably transfected, tetracycline-induced
T1 sequence (Q12908 1-348): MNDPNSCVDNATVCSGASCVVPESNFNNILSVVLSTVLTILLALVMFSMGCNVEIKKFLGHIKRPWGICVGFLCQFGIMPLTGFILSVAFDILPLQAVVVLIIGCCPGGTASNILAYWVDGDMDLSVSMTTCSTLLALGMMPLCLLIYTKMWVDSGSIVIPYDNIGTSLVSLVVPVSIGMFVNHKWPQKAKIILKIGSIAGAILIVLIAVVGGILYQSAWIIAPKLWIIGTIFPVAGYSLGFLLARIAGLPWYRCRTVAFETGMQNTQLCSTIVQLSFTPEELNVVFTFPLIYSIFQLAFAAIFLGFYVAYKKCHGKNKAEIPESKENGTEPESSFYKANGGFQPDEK
Description: HEK293 cells stably expressing ASBT were seeded onto poly-L-lysine-coated 96-well plates, induced with 1 μg/ml tetracycline, and grown to confluence over 72 h at 37°C. Non-carrier-expressing HEK293 cells were used as control. Then, cells were washed with tempered (37°C) PBS and equilibrated for 5 min with STB. […] After inhibitor preincubation, cells were washed with tempered (37°C) PBS and further incubated in inhibitor-free DMEM (Thermo Fisher Scientific) for 30, 60, 120, or 240 min at 37°C. […] Finally, cell associated radioactivity was determined using the MicroBeta2 liquid scintillation counter (Revvity). For each inhibitor, the mean values from noncarrier-expressing HEK293 cells were set to 0% and transport measurements in the absence of inhibitor (solvent control) were set to 100%.
In the second setup, the inhibitor was thoroughly washed out after the preincubation phase and cells were placed on inhibitor-free medium for different time intervals of 0–240 min (indicated by “recovery time” in Fig. 7A).

[1] = biological target: T2, NTCP M290T/I291V (NTCP→mAsbt) (Homo sapiens, UniProt Q14973, I291V/M290T); assay: [3H]TC transport and inhibition assay, NTCP→mAsbt mutant in HEK293 cells; type: cell-based; settings: 1 μM [3H]TC, 10 min
T2 construct: stably transfected with the full open reading frames of human NTCP, ASBT, SOAT, OATP1B1, OATP1B3, OATP2B1, and murine Asbt (mAsbt); expressed in transfected cells; host or cells: HEK293, stably transfected
T2 sequence (Q14973 1-349 M290T/I291V): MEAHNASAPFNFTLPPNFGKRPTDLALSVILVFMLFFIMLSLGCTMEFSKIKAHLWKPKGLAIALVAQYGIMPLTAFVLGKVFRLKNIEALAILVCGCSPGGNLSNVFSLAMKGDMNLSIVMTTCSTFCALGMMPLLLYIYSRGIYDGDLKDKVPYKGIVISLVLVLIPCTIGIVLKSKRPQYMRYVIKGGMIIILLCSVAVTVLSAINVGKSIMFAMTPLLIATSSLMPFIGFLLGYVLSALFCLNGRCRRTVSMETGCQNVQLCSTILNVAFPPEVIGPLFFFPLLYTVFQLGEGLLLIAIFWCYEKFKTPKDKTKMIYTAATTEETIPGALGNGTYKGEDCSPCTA
Description: Amplification was performed on a peqSTAR XS PEQLAB PCR cycler (Peqlab) with Pfu DNA polymerase (M774A; Promega) in 18 cycles under the following conditions: initial denaturation for 2 min at 95°C, denaturation for 30 s at 95°C, annealing for 1 min at 55°C, extension for 8 min and 30 s at 72°C, final elongation for 10 min at 72°C and final hold at 4°C. After amplification, the products were digested with DpnI (ER1701; Thermo Fisher Scientific) for 1 h at 37°C and transformed into TOP10 chemically competent E. coli (Thermo Fisher Scientific). Plasmids were isolated using a GeneJET Plasmid Miniprep Kit (Thermo Fisher Scientific) according to the manufacturer's protocol, and the generated point mutations were verified by DNA sequencing (Seqlab Microsynth).
Cells were seeded onto poly-L-lysine-coated 96-well plates, induced with 1 μg/ml tetracycline, and grown to confluence over 72 h at 37°C. Then, cells were washed with tempered (37°C) phosphate-buffered saline (PBS, containing 137.0 mM NaCl, 2.7 mM KCl, 1.5 mM KH2PO4, and 7.3 mM Na2HPO4, at pH 7.4) and preincubated with 80 μl sodium transport buffer (STB, containing 142.9 mM NaCl, 4.7 mM KCl, 1.2 mM MgSO4, 1.2 mM KH2PO4, 1.8 mM CaCl2, and 20.0 mM HEPES, at pH 7.4) for 5 min at 37°C. For inhibition studies, the medium was replaced by 80 μl STB containing the respective inhibitor or solvent alone and cells were further incubated for 5 min at 37°C. Transport experiments were started by adding 20 μl of a 5-fold concentrated substrate solution (solved in STB). For transport experiments under sodium-free conditions the same buffer composition was used as for STB, but sodium chloride was substituted with equimolar concentrations of choline chloride as previously reported ([20], [24]). Transport experiments were stopped by washing twice with ice-cold PBS and the plates were kept cool on ice until adding the lysis buffer [1% sodium dodecyl sulfate (SDS) and 1 N NaOH]. Then, the cell-associated radioactivity of the respective tritium-labeled substrate or ligand was quantified by liquid scintillation counting using MicroScint-20 scintillation cocktail (Revvity) in a Packard Microplate Scintillation Counter TopCount NXT (Packard Instrument Company). For IC50 transport inhibition measurements, the mean uptake values measured in non-carrier-expressing HEK293 control cells were defined as 0% uptake control and were subtracted from all other values. Values from cells without inhibitor and solvent alone were set to 100%. Finally, all net transport data were expressed as uptake or binding as % of control. All transport or inhibition graphs were generated with GraphPad Prism 6 (GraphPad). Determination of half maximal inhibitory concentrations (IC50) was done by nonlinear regression analysis using the equation log (inhibitor) versus response—variable slope settings. All data points of the IC50 curves represent means ± SD of quadruplicate determinations. For Km measurements, BS uptake in the absence of sodium was regarded as carrier-independent unspecific uptake and was subtracted from the transport rates in the presence of sodium to obtain carrier-specific uptake rates (indicated as dashed lines). From the specific uptake rates, Michaelis Menten Km values were calculated by non-linear regression analysis.

Row | ASBT inhibition pattern after inhibitor washout and inhibitor-free incubation (ASBT) | Inhibition curves and AUC of NTCP→mAsbt mutant compared to wild-type NTCP [1] | ASBT transport activity recovered directly after inhibitor washout (ASBT; 0 min recovery) | ASBT recovery after washout and 30 min in inhibitor-free medium (ASBT; 30 min recovery) | Structure (SMILES) | OATP1B1 inhibition (in words) (OATP1B1; in vitro, ref FDA NDA 214662 Livmarli) | IC50 (OATP1B1; in vitro studies, ref FDA NDA 215498 BYLVAY) | OATP1B1 inhibition (in words) (OATP1B1; ref EMA EPAR Product Information Bylvay) | Substrate of OATP1B1 (OATP1B1) | IC50 (OATP1B1; ref 65 Zamek-Gliszczynski et al. (2021)) | IC50 (OATP1B1; in vitro studies, ref PMDA Goofice Report on the Deliberation Results)
1 | quick and full recovery | still inactive | about 37% | mostly recovered ASBT | CCCC[C@]1(CC)CS(=O)(=O)c2cc(CNC(CC(=O)O)CC(=O)O)c(OC)cc2[C@@H](c2ccccc2)N1 [linerixibat] |  |  |  | is a substrate | 2690 nM | 
2 | intermediate inhibition pattern | did not significantly change |  |  | CCCCC1(CCCC)CN(c2ccccc2)c2cc(SC)c(OCC(=O)N[C@@H](C(=O)NCC(=O)O)c3ccccc3)cc2S(=O)(=O)C1 [elobixibat] |  |  |  |  |  | 258 nM

Continued, compound first:

Row | Structure (SMILES) | ASBT inhibition pattern after inhibitor washout and inhibitor-free incubation (ASBT) | Inhibition curves and AUC of NTCP→mAsbt mutant compared to wild-type NTCP [1] | ASBT transport activity recovered directly after inhibitor washout (ASBT; 0 min recovery) | ASBT recovery after washout and 30 min in inhibitor-free medium (ASBT; 30 min recovery) | OATP1B1 inhibition (in words) (OATP1B1; in vitro, ref FDA NDA 214662 Livmarli) | IC50 (OATP1B1; in vitro studies, ref FDA NDA 215498 BYLVAY) | OATP1B1 inhibition (in words) (OATP1B1; ref EMA EPAR Product Information Bylvay) | Substrate of OATP1B1 (OATP1B1) | IC50 (OATP1B1; ref 65 Zamek-Gliszczynski et al. (2021)) | IC50 (OATP1B1; in vitro studies, ref PMDA Goofice Report on the Deliberation Results)
3 | CCCCC1(CCCC)CS(=O)(=O)c2ccc(N(C)C)cc2[C@@H](c2ccc(OCc3ccc(C[N+]45CCN(CC4)CC5)cc3)cc2)[C@H]1O [maralixibat] | retained full ASBT uptake inhibition | did not significantly change |  |  | In vitro, maralixibat did not inhibit the transporters OATP1B1 and OATP1B3. |  |  |  |  | 
4 | CCCCC1(CCCC)CS(=O)(=O)c2ccc(N(C)C)cc2[C@@H](c2ccc(OCCCC[N+]34CCN(CC3)CC4)cc2)[C@H]1O [SC-435] | intermediate inhibition pattern | still inactive |  |  |  |  |  |  |  | 
5 | CCCCC1(CCCC)CN(c2ccccc2)c2cc(SC)c(OCC(=O)N[C@@H](C(=O)N[C@@H](CC)C(=O)O)c3ccc(O)cc3)cc2S(=O)(=O)N1 [odevixibat] | retained full ASBT uptake inhibition | did not significantly change |  |  |  | 308 nM | Odevixibat does not inhibit OATP1B1 and OATP1B3. |  |  | 
